Results as given in EP0326418A1, “GRF analogs” (THE UPJOHN COMPANY, priority 1988, dated 1989).
Where a SMILES comes first, the peptide text is derived from it. [ ]: non-standard residue; d: D form. Cya = N[C@@H](CS(=O)(=O)O)C(=O)O

Legend:
[1] = test system: bovine anterior pituitary cell culture; format: cell-based
meal-fed Holstein steers = experiment: serum growth hormone (GH) response after intravenous injection in steers (Procedure B); format: in vivo; conditions: in comparison to the standard bGRF(1-44)NH₂ (Area 100%), procedure B, second study
Description: The synthetic peptides prepared in Examples 1, 2 and 3 (Compounds 1, 2 and 3 respectively), bGRF(1-44)NH2 and […] bGRF(1-32)NH2 were also given to meal-fed Holstein steers by intravenous injection (Procedure B) and the serum growth hormone (GH) response evaluated. […] In comparison to bGRF(1-44)NH2 (100%), the area under the GH response curve was 122% for […] bGRF(1-32)NH2, 100% for Compound #1, 106% for Compound #2, and 111% for Compound #3. Holstein steers (265 +/- 5kg) were housed in individual stalls 18-20°C) and exposed to 16h light:8h darkness (lights on at 0400h). Steers are meal-fed once daily at 1000h and trained to consume their total daily feed intake in 2 h. The diet consisted of rolled corn plus a mineral/vitamin premix and alfalfa hay cubes fed at 160% maintenance energy requirements on a bodyweight basis. Steers gained approximately 0.75 kg/h/d. In a 5 x […] Latin Square design 10 steers were assigned randomly to receive the following treatments. (a) bGRF(1-44)NH2, (b) […] bGRF(1-32)NH2, (c) Compound #3, (d) Compound #1, and (e) Compound #2. The GRFs were dissolves in saline (10μg/ml) and administered at 3nM/100 kg bodyweight as single iv injection at 0800 h, 2 h between feeding. A cannula was inserted into a jugular vein at least one day before treatment. Blood (6 ml) was collected at 20-min interval from 40 min before until 120 min after injection with additional samples collected at 5, 10 and 15 min after injection. Serum obtained from the samples was assayed from GH concentration. The number of steers responding to injection fo the various GRFs tested (P=0.42) ranged from 9 of 10 to 10 of 10 depending on the treatment. Using procedure B, compounds were tested for growth hormone release in steers. In comparison to the standard bGRF(1-44)NH2 (Area 100%), the test compounds gave the following relative growth hormone areas: Compound 4, 233%; compound 5, 140%; compound 6, 160%; compound 7, 126%; compound 8, 307%; compound 9, 260%; and compound 11, 173%.

[2] = proteolytic stability in bovine plasma (HPLC, modified Frohman method); conditions: bovine plasma

- remaining at 1 h [2]: 86%
Structure (SMILES): CC[C@H](C)[C@H](NC(=O)[C@H](C)NC(=O)[C@H](CS(=O)(=O)O)NC(=O)[C@@H](C)NC(=O)[C@@H](N)Cc1c[nH]cn1)C(=O)N[C@@H](Cc1ccccc1)C(=O)N[C@H](C(=O)N[C@@H](CC(N)=O)C(=O)N[C@@H](CO)C(=O)N[C@@H](Cc1ccc(O)cc1)C(=O)N[C@@H](CCCNC(=N)N)C(=O)N[C@@H](CCCCN)C(=O)N[C@H](C(=O)N[C@@H](CC(C)C)C(=O)N[C@@H](C)C(=O)N[C@@H](CCC(N)=O)C(=O)N[C@@H](CC(C)C)C(=O)N[C@@H](CO)C(=O)N[C@@H](C)C(=O)N[C@@H](CCCNC(=N)N)C(=O)N[C@@H](CCCCN)C(=O)N[C@@H](CC(C)C)C(=O)N[C@@H](CC(C)C)C(=O)N[C@@H](CCC(N)=O)C(=O)N[C@@H](CC(=O)O)C(=O)N[C@H](C(=O)N[C@@H](CC(C)C)C(=O)N[C@@H](CC(N)=O)C(=O)N[C@@H](CCCNC(=N)N)C(=O)N[C@@H](CCC(N)=O)C(=O)N[C@@H](CCC(N)=O)C(=O)NCC(N)=O)[C@@H](C)CC)C(C)C)[C@@H](C)O [Compound 11, His¹, D-Ala², Cya³, Ala¹⁵, Leu²⁷-bGRF(1-32)NH₂] (H-H[dA][Cya]AIFTNSYRKVLAQLSARKLLQDILNRQQG-NH2)
- the potency of bGRF(1-44)NH₂ [1]: 0.28
- relative growth hormone areas (meal-fed Holstein steers): 173%
